Anti-Factor Xa activity and Kd data for two molecules are collected here from ChEMBL document CHEMBL1130453, “Synthesis and biological activity of a new anti-factor Xa pentasaccharide with a C-interglycosidic bond” (Bioorg Med Chem Lett, 1997).

For test [1], the target named is Coagulation factor X (Homo sapiens) (UniProt P00742). As to the kind of experiment: Anti-factor Xa activity by amidolytic method.
Test [2] addresses Antithrombin-III (Homo sapiens, UniProt P01008). As to the kind of experiment: In vitro binding affinity against antithrombin III (AT III) was determined by fluorescence spectroscopy.

Sequence of Coagulation factor X (Homo sapiens) (P00742 41-179 limits assumed): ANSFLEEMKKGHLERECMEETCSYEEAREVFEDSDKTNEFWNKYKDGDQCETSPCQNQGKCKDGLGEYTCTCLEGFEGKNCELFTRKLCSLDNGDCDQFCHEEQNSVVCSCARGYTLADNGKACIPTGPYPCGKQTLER
Sequence of Coagulation factor X (Homo sapiens) (P00742 235-488 limits assumed): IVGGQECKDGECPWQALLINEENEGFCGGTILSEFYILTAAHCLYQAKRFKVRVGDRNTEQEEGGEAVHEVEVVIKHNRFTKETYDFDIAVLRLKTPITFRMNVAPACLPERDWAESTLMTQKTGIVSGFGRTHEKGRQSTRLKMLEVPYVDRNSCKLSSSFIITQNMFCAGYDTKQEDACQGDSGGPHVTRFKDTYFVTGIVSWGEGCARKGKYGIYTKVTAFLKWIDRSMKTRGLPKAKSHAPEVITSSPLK
Sequence of Antithrombin-III (P01008 whole entry): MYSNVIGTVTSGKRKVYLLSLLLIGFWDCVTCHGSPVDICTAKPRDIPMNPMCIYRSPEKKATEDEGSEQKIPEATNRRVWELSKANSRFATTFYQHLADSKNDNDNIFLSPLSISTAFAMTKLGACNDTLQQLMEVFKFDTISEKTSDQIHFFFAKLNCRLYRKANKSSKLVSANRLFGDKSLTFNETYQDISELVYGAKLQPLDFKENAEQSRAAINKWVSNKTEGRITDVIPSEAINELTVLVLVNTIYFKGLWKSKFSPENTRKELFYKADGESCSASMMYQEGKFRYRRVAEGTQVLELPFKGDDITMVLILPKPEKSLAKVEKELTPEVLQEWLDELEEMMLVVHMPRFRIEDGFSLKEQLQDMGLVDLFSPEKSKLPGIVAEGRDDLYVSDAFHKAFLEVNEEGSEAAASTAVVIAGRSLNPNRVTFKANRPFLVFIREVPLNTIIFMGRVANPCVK

`CO[C@H]1O[C@@H](COS(=O)(=O)O)[C@@H](O[C@@H]2O[C@@H](C(=O)O)[C@H](O[C@H]3O[C@@H](COS(=O)(=O)O)[C@@H](O[C@@H]4O[C@@H](C(=O)O)[C@@H](O[C@H]5O[C@@H](COS(=O)(=O)O)[C@@H](OC)[C@H](OC)[C@@H]5OC)[C@H](OC)[C@@H]4OC)[C@H](OS(=O)(=O)O)[C@@H]3OS(=O)(=O)O)[C@H](OC)[C@H]2OC)[C@H](OS(=O)(=O)O)[C@@H]1OS(=O)(=O)O` registered an Anti-Factor Xa activity in test [1] of 1180 U/mg.
In test [2], `CO[C@H]1O[C@@H](COS(=O)(=O)O)[C@@H](O[C@@H]2O[C@@H](C(=O)O)[C@H](O[C@H]3O[C@@H](COS(=O)(=O)O)[C@@H](O[C@@H]4O[C@@H](C(=O)O)[C@@H](C[C@H]5O[C@@H](COS(=O)(=O)O)[C@@H](OC)[C@H](OC)[C@@H]5OC)[C@H](OC)[C@@H]4OC)[C@H](OS(=O)(=O)O)[C@@H]3OS(=O)(=O)O)[C@H](OC)[C@H]2OC)[C@H](OS(=O)(=O)O)[C@@H]1OS(=O)(=O)O` had a Kd of 2.8 nM. In test [1], this molecule gave an Anti-Factor Xa activity of 880 U/mg.
